Among the data in patent US20240116985A1, “STAPLED PEPTIDES AND METHODS THEREOF” (priority 2020, published 2024) are IC50 values, retold here.

Experiment [1] addresses T1, full-length beta-Catenin (Uniprot ID P35222) (Homo sapiens, UniProt P35222).
T1 construct: 10 nM full-length beta-Catenin (Uniprot ID P35222)
T1 sequence (P35222 1-781): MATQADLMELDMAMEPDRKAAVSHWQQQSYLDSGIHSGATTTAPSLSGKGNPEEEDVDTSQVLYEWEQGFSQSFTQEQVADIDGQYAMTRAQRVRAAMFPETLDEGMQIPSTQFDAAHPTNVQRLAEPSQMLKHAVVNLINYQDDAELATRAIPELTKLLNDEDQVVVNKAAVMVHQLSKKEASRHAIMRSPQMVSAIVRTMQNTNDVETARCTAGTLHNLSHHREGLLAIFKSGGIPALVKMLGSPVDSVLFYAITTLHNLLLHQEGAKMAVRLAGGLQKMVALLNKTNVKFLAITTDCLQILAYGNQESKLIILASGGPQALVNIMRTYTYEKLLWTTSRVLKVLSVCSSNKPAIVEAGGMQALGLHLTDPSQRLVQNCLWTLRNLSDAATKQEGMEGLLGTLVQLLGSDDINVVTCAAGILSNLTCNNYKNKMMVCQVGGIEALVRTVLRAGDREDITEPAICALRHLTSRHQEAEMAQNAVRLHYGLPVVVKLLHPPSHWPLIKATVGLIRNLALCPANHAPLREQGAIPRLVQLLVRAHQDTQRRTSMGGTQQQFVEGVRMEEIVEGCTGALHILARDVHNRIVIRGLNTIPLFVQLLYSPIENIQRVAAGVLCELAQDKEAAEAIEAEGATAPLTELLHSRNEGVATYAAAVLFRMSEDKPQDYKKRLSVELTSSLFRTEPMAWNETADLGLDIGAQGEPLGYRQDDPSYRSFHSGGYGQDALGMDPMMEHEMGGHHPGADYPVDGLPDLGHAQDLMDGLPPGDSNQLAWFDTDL
Briefly: Fluorescence polarization IC50 (beta-catenin / 5FAM-TCF4 10-53 competition). It is filed as binding. In general terms: Polarisation of emitted light reports the rotation of a fluorescent probe.

The target in experiment [2] is T2, beta-catenin/TCF4 engagement (Homo sapiens, UniProt P35222).
T2 construct: expressed in transfected cells; host or cells: HEK293
T2 sequence (P35222 1-781): T1 sequence (P35222 1-781)
Briefly: Nano-BRET target engagement assay (B-cat-Halo & TCF4-Luc in HEK293 cells). It is filed as cell-based. (In general: In BRET a luciferase serves as donor, and the signal depends on an acceptor being close.)

Setting [3] is: fluorescence polarization; read-out: beta-Catenin FP IC50.
Setting [4] is: absolute IC50; read-out: NanoBRET Abs IC50.

Like-named read-outs stand apart in the source and are kept apart here.

In general, IC50 refers to the midpoint of a concentration-inhibition curve. With `CC(=O)N1CC2CC1C(=O)N[C@@H](CC(=O)O)C(=O)N[C@@H](CC(C)(C)C)C(=O)NC1(CCCCCCCCOC(=O)N3CC[C@@](C(=O)N[C@@H](Cc4ccsc4)C(=O)N[C@@H](Cc4csc5ccccc45)C(=O)N[C@@H](CCC(N)=O)C(N)=O)(C3)NC(=O)[C@H](CC(C)C)NC(=O)[C@H](Cc3ccccc3)NC(=O)[C@H](C)NC(=O)[C@H](C)NC(=O)[C@H](CN(CC(=O)O)CC(F)(F)F)NC(=O)[C@H](CC(=O)O)NC1=O)CCCCCCCC(=O)O2` (stereo partly drawn) [I-2265, Ac-HypEs5-Asp-Npg-B5-Asp-TfeGA-Ala-Ala-Phe-Leu-PyrS2-3Thi-BztA-Gln-NH2], the values for the IC50 in experiment [1] (setting [3]) and in experiment [2] (setting [4]) were 67 nM and above 20000 nM, respectively.
For `CC(=O)N1CCC[C@]12CC=CCCCC1(CCCC=CCCCOC(=O)N3CC[C@@](C(=O)N[C@@H](Cc4ccsc4)C(=O)N[C@@H](Cc4csc5ccccc45)C(=O)N[C@@H](CC(N)=O)C(=O)N[C@@H](C)C(=O)NC(C)(C)C(=O)N[C@@H](C)C(=O)NC(C)(C)C(=O)N[C@@H](C)C(N)=O)(C3)NC(=O)[C@H](CC(C)C)NC(=O)[C@H](Cc3ccccc3)NC(=O)[C@H](C)NC(=O)[C@H](C)NC(=O)[C@H](Cc3cccc(C(=O)O)c3)NC(=O)[C@H](CC(=O)O)NC1=O)NC(=O)[C@H](CC(C)(C)C)NC(=O)[C@H](CC(=O)O)NC2=O` (stereo partly drawn) [I-2272, Ac-PL3-Asp-Npg-B5-Asp-3COOHF-Ala-Ala-Phe-Leu-PyrS2-3Thi-BztA-Asn-Ala-Aib-Ala-Aib-Ala-NH2] the same measures were 43 nM and 3000 nM.
On to `CC(=O)N1CCC[C@]12CC=CCCCC1(CCCC=CCCCOC(=O)N3CC[C@@](C(=O)N[C@@H](Cc4ccsc4)C(=O)N[C@@H](Cc4csc5ccccc45)C(=O)N[C@@H](CC(N)=O)C(=O)N[C@@H](C)C(=O)NC(C)(C)C(=O)N[C@@H](C)C(=O)NC(C)(C)C(=O)N[C@@H](C)C(=O)NC(C)(C)C(=O)N[C@@H](C)C(N)=O)(C3)NC(=O)[C@H](CC(C)C)NC(=O)[C@H](Cc3ccccc3)NC(=O)[C@H](C)NC(=O)[C@H](C)NC(=O)[C@H](Cc3cccc(C(=O)O)c3)NC(=O)[C@H](CC(=O)O)NC1=O)NC(=O)[C@H](CC(C)(C)C)NC(=O)[C@H](CC(=O)O)NC2=O` (stereo partly drawn) [I-2273, Ac-PL3-Asp-Npg-B5-Asp-3COOHF-Ala-Ala-Phe-Leu-PyrS2-3Thi-BztA-Asn-Ala-Aib-Ala-Aib-Ala-Aib-Ala-NH2], for which the half-inhibitory concentration (IC50) in experiment [1] (setting [3]) amounted to 107 nM; in experiment [2] (setting [4]) it was 6200 nM.
In the same order, the values of `CC(=O)N1CCC[C@]12CC=CCCCC1(CCCC=CCCCOC(=O)N3CC[C@@](C(=O)N[C@@H](Cc4ccsc4)C(=O)N[C@@H](Cc4csc5ccccc45)C(=O)N[C@@H](CC(N)=O)C(=O)N[C@@H](CC(C)C)C(=O)N[C@@H](CC(C)C)C(=O)N[C@@H](CC(C)C)C(N)=O)(C3)NC(=O)[C@H](CC(C)C)NC(=O)[C@H](Cc3ccccc3)NC(=O)[C@H](C)NC(=O)[C@H](C)NC(=O)[C@H](Cc3cccc(C(=O)O)c3)NC(=O)[C@H](CC(=O)O)NC1=O)NC(=O)[C@H](CC(C)(C)C)NC(=O)[C@H](CC(=O)O)NC2=O` (stereo partly drawn) [I-2275, Ac-PL3-Asp-Npg-B5-Asp-3COOHF-Ala-Ala-Phe-Leu-PyrS2-3Thi-BztA-Asn-Leu-Leu-Leu-NH2] are 117 nM and 3500 nM.
Turning to `CC(=O)N1CCC[C@]12CC=CCCCC1(CCCC=CCCCOC(=O)N3CC[C@@](C(=O)N[C@@H](Cc4ccsc4)C(=O)N[C@@H](Cc4csc5ccccc45)C(=O)N[C@@H](CC(N)=O)C(=O)N[C@@H](C)C(=O)N[C@@H](CC(C)C)C(=O)N[C@@H](CC(C)C)C(N)=O)(C3)NC(=O)[C@H](CC(C)C)NC(=O)[C@H](Cc3ccccc3)NC(=O)[C@H](C)NC(=O)[C@H](C)NC(=O)[C@H](Cc3cccc(C(=O)O)c3)NC(=O)[C@H](CC(=O)O)NC1=O)NC(=O)[C@H](CC(C)(C)C)NC(=O)[C@H](CC(=O)O)NC2=O` (stereo partly drawn) [I-2277, Ac-PL3-Asp-Npg-B5-Asp-3COOHF-Ala-Ala-Phe-Leu-PyrS2-3Thi-BztA-Asn-Ala-Leu-Leu-NH2], the IC50 worked out at 114 nM in experiment [1] (setting [3]) and 2300 nM in experiment [2] (setting [4]).
In the same order, the values of `CC(=O)N1CCC[C@]12CC=CCCCC1(CCCC=CCCCOC(=O)N3CC[C@@](C(=O)N[C@@H](Cc4ccsc4)C(=O)N[C@@H](Cc4csc5ccccc45)C(=O)N[C@@H](CC(N)=O)C(=O)N[C@@H](C)C(=O)N[C@@H](CC(C)C)C(=O)N[C@@H](CC(C)C)C(N)=O)(C3)NC(=O)[C@H](CC(C)C)NC(=O)[C@H](Cc3ccccc3)NC(=O)[C@H](C)NC(=O)[C@H](C)NC(=O)[C@H](Cc3cccc(C(=O)O)c3)NC(=O)[C@H](CC(=O)O)NC1=O)NC(=O)[C@H](CC(C)(C)C)NC(=O)[C@H](CC(=O)O)NC2=O` (stereo partly drawn) [I-2278, Ac-PL3-Asp-Npg-B5-Asp-3COOHF-Ala-Ala-Phe-Leu-PyrS2-3Thi-BztA-Asn-Ala-Leu-Leu-NH2] are 120 nM and 2800 nM.
In the case of `CC(=O)N1CCC[C@]12CC=CCCCC1(CCCC=CCCCOC(=O)N3CC[C@@](C(=O)N[C@@H](Cc4ccsc4)C(=O)N[C@@H](Cc4csc5ccccc45)C(=O)N[C@@H](CC(N)=O)C(=O)N[C@@H](CC(C)C)C(=O)N[C@@H](CC(C)C)C(=O)N[C@@H](CC(C)C)C(=O)N[C@@H](CC(C)C)C(=O)N[C@@H](CC(C)C)C(N)=O)(C3)NC(=O)[C@H](CC(C)C)NC(=O)[C@H](Cc3ccccc3)NC(=O)[C@H](C)NC(=O)[C@H](C)NC(=O)[C@H](Cc3cccc(C(=O)O)c3)NC(=O)[C@H](CC(=O)O)NC1=O)NC(=O)[C@H](CC(C)(C)C)NC(=O)[C@H](CC(=O)O)NC2=O` (stereo partly drawn) [I-2279, Ac-PL3-Asp-Npg-B5-Asp-3COOHF-Ala-Ala-Phe-Leu-PyrS2-3Thi-BztA-Asn-Leu-Leu-Leu-Leu-Leu-NH2], the values for the IC50 in experiment [1] (read-out: beta-Catenin FP IC50; fluorescence polarization) and in experiment [2] (read-out: NanoBRET Abs IC50; absolute IC50) were 7230 nM and above 20000 nM, respectively.
Consider `CC(=O)N1CCC[C@]12CC=CCCCC1(CCCC=CCCCOC(=O)N3CC[C@@](C(=O)N[C@@H](Cc4ccsc4)C(=O)N[C@@H](Cc4csc5ccccc45)C(=O)N[C@@H](CC(N)=O)C(=O)N[C@@H](C)C(=O)N[C@@H](CC(C)C)C(=O)N[C@@H](C)C(=O)N[C@@H](CC(C)C)C(=O)N[C@@H](C)C(N)=O)(C3)NC(=O)[C@H](CC(C)C)NC(=O)[C@H](Cc3ccccc3)NC(=O)[C@H](C)NC(=O)[C@H](C)NC(=O)[C@H](Cc3cccc(C(=O)O)c3)NC(=O)[C@H](CC(=O)O)NC1=O)NC(=O)[C@H](CC(C)(C)C)NC(=O)[C@H](CC(=O)O)NC2=O` (stereo partly drawn) [I-2281, Ac-PL3-Asp-Npg-B5-Asp-3COOHF-Ala-Ala-Phe-Leu-PyrS2-3Thi-BztA-Asn-Ala-Leu-Ala-Leu-Ala-NH2], for which the concentration for half-maximal inhibition (IC50) in experiment [1] (setting [3]) turned out to be 138 nM; in experiment [2] (setting [4]), 4300 nM.
For the molecule `CC(=O)N1CCC[C@]12CC=CCCCC1(CCCC=CCCCOC(=O)N3CC[C@@](C(=O)N[C@@H](Cc4ccsc4)C(=O)N[C@@H](Cc4csc5ccccc45)C(=O)N[C@@H](CC(N)=O)C(=O)N[C@@H](C)C(=O)N[C@@H](CC(C)C)C(=O)N[C@@H](C)C(=O)N[C@@H](CC(C)C)C(=O)N[C@@H](C)C(N)=O)(C3)NC(=O)[C@H](CC(C)C)NC(=O)[C@H](Cc3ccccc3)NC(=O)[C@H](C)NC(=O)[C@H](C)NC(=O)[C@H](Cc3cccc(C(=O)O)c3)NC(=O)[C@H](CC(=O)O)NC1=O)NC(=O)[C@H](CC(C)(C)C)NC(=O)[C@H](CC(=O)O)NC2=O` (stereo partly drawn) [I-2282, Ac-PL3-Asp-Npg-B5-Asp-3COOHF-Ala-Ala-Phe-Leu-PyrS2-3Thi-BztA-Asn-Ala-Leu-Ala-Leu-Ala-NH2], the figures for the IC50 in experiment [1] (setting [3]) and in experiment [2] (setting [4]) were 155 nM and 3700 nM, respectively.
In the same order, the values of `CC(=O)N1CCC[C@]12CC=CCCCC1(CCCC=CCCCOC(=O)N3CC[C@@](C(=O)N[C@@H](Cc4ccsc4)C(=O)N[C@@H](Cc4csc5ccccc45)C(=O)N[C@@H](CC(N)=O)C(=O)N[C@@H](C)C(=O)N[C@@H](CC(C)C)C(=O)N[C@@H](C)C(=O)N[C@@H](CC(C)C)C(=O)N[C@@H](C)C(=O)N[C@@H](CC(C)C)C(=O)N[C@@H](C)C(N)=O)(C3)NC(=O)[C@H](CC(C)C)NC(=O)[C@H](Cc3ccccc3)NC(=O)[C@H](C)NC(=O)[C@H](C)NC(=O)[C@H](Cc3cccc(C(=O)O)c3)NC(=O)[C@H](CC(=O)O)NC1=O)NC(=O)[C@H](CC(C)(C)C)NC(=O)[C@H](CC(=O)O)NC2=O` (stereo partly shown) [I-2283] are 2860 nM and 4500 nM.
Take `CC(=O)N1CCC[C@]12CC=CCCCC1(CCCC=CCCCOC(=O)N3CC[C@@](C(=O)N[C@@H](Cc4ccsc4)C(=O)N[C@@H](Cc4csc5ccccc45)C(=O)N[C@@H](CC(N)=O)C(=O)N[C@@H](C)C(=O)N[C@@H](CC(C)C)C(=O)N[C@@H](C)C(=O)N[C@@H](CC(C)C)C(=O)N[C@@H](C)C(=O)N[C@@H](CC(C)C)C(=O)N[C@@H](C)C(N)=O)(C3)NC(=O)[C@H](CC(C)C)NC(=O)[C@H](Cc3ccccc3)NC(=O)[C@H](C)NC(=O)[C@H](C)NC(=O)[C@H](Cc3cccc(C(=O)O)c3)NC(=O)[C@H](CC(=O)O)NC1=O)NC(=O)[C@H](CC(C)(C)C)NC(=O)[C@H](CC(=O)O)NC2=O` (stereo partly shown) [I-2284]: the IC50 in experiment [1] (setting [3]) worked out at 2680 nM; in experiment [2] (setting [4]), 12900 nM.
